Experimental data published in patent US6268366A, “Amide derivatives of substituted quinoxaline 2,3-diones as glutamate receptor antagonists” (Warner-Lambert Company, priority 2000, dated 2001).

Tests used:
AMPA receptors = assay: AMPA receptor binding affinity (Honore et al.)
[1] = molecular target: kainate site (non-NMDA receptor); assay: kainate site (non-NMDA receptor) binding affinity (London and Coyle)
[2] = molecular target: T1, glycine (GLY) site of the NMDA receptor (Rattus norvegicus, UniProt P35439); assay: glycine (GLY) site of the NMDA receptor binding affinity (Jones et al.)
T1 construct: measured as described in Jones S. M., et al., Pharmacol. Methods, 1989;21:161; from tissue

CF-1 strain mice = assay: maximal electroshock (MES) assay in CF-1 strain mice, corneal electrodes; type: in vivo; settings: for Ataxic (%) / Protected (%): MES, mice IV; for duration of action in maximal electroshock time course compared with PNQX: mice, 30 mg/kg IV, versus standard PNQX, FIGS. 1 and 2
Experimental: Additionally, as a preliminary indicator of in vivo CNS activity related to anticonvulsant activity and potential neuroprotection, a maximal electroshock assay in CF-1 strain mice (20-25 g) was performed with corneal electrodes by conventional methods as described previously (Krall, et al., Epilepsia, 1988;19:409-428).
FIGS. […] The graph is the percent of mice protected versus the time in minutes.

Structure (SMILES) | IC50 (AMPA receptors) | IC50 KA [1] | IC50 [2] | also measured
CC(=O)N(C)Cc1c(C)c([N+](=O)[O-])cc2[nH]c(=O)c(=O)[nH]c12 [Compound 1, N-Methyl-N-(6-methyl-7-nitro-2,3-dioxo-1,2,3,4-tetrahydro-quinoxalin-5-ylmethyl)-acetamide] | 350 nM | 1660 nM | 30 nM | –
Cc1c([N+](=O)[O-])cc2[nH]c(=O)c(=O)[nH]c2c1CN(C)C(=O)C1CCCCC1 [Compound 3, Cyclohexanecarboxylic acid-methyl-(6-methyl-7-nitro-2,3-dioxo-1,2,3,4-tetrahydro-quinoxalin-5-ylmethyl)amide] | 910 nM | 3210 nM | 300 nM | –
Cc1c([N+](=O)[O-])cc2[nH]c(=O)c(=O)[nH]c2c1CN(C)C(=O)CC1CCCCC1 [Compound 4, 2-Cyclohexyl-N-methyl-N-(6-methyl-7-nitro-2,3-dioxo-1,2,3,4-tetrahydro-quinoxalin-5-ylmethyl)-acetamide] | 2050 nM | 2970 nM | 200 nM | –
Cc1c([N+](=O)[O-])cc2[nH]c(=O)c(=O)[nH]c2c1CN(C)C(=O)Cc1ccccc1 [Compound 5, N-methyl-N-(6-methyl-7-nitro-2,3-dioxo-1,2,3,4-tetrahydro-quinoxalin-5-ylmethyl)-2-phenyl-acetamide] | 350 nM | 590 nM | 20 nM | –
Cc1c([N+](=O)[O-])cc2[nH]c(=O)c(=O)[nH]c2c1CN(C)C(=O)c1ccccc1 [Compound 6, N-methyl-N-(6-methyl-7-nitro-2,3-dioxo-1,2,3,4-tetrahydro-quinoxalin-5-ylmethyl)-benzamide] | 1220 nM | 2770 nM | 30 nM | –
Cc1c([N+](=O)[O-])cc2[nH]c(=O)c(=O)[nH]c2c1CN(C)C(=O)c1ccc(Cl)cc1 [Compound 7, 4-Chloro-N-methyl-N-(6-Methyl-7-nitro-2,3-dioxo-1,2,3,4-tetrahydro-quinoxalin-5-ylmethyl)-benzamide] | 980 nM | 1980 nM | 40 nM | –
Cc1c([N+](=O)[O-])cc2[nH]c(=O)c(=O)[nH]c2c1CN(C)C(=O)c1ccc(C(F)(F)F)cc1 [Compound 8, N-Methyl-N-(6-Methyl-7-nitro-2,3-dioxo-1,2,3,4-tetrahydro-quinoxalin-5-ylmethyl)-4-trifluoromethyl-benzamide] | 1920 nM | 3700 nM | – | –
Cc1c([N+](=O)[O-])cc2[nH]c(=O)c(=O)[nH]c2c1CN(C)C(=O)c1ccc(Cl)c(Cl)c1 [Compound 9, 3,4-Dichloro-N-methyl-N-(6-methyl-7-nitro-2,3-dioxo-1,2,3,4-tetrahydro-quinoxalin-5-ylmethyl)-benzamide] | 1690 nM | 3450 nM | – | –
Cc1c([N+](=O)[O-])cc2[nH]c(=O)c(=O)[nH]c2c1CN(C)C(=O)c1ccc([N+](=O)[O-])cc1 [Compound 10, N-Methyl-N-(6-Methyl-7-nitro-2,3-dioxo-1,2,3,4-tetrahydro-quinoxalin-5-ylmethyl)-4-nitro-benzamide] | 1120 nM | 950 nM | – | –

Now from value to molecule, other results behind:

IC50 (AMPA receptors) | IC50 KA [1] | IC50 [2] | Structure (SMILES) | also measured
460 nM | 1230 nM | 8 nM | Cc1c([N+](=O)[O-])cc2[nH]c(=O)c(=O)[nH]c2c1CN(C)C(=O)c1cccs1 [Compound 11, Thiophene-2-carboxylic acid-methyl-(6-methyl-7-nitro-2,3-dioxo-1,2,3,4-tetrahydro-quinoxalin-5-ylmethyl)-amide] | Ataxic (%) (CF-1 strain mice; 5 min, 10 mg/kg): 0%; Protected (%) (CF-1 strain mice; 5 min, 10 mg/kg): 0%; Ataxic (%) (CF-1 strain mice; 5 min, 30 mg/kg): 40%; Protected (%) (CF-1 strain mice; 5 min, 30 mg/kg): 40%; Ataxic (%) (CF-1 strain mice; 15 min, 10 mg/kg): 0%; Protected (%) (CF-1 strain mice; 15 min, 10 mg/kg): 40%; Ataxic (%) (CF-1 strain mice; 15 min, 30 mg/kg): 60%; Protected (%) (CF-1 strain mice; 15 min, 30 mg/kg): 80%; Ataxic (%) (CF-1 strain mice; 30 min, 10 mg/kg): 0%; Protected (%) (CF-1 strain mice; 30 min, 10 mg/kg): 40%; Ataxic (%) (CF-1 strain mice; 30 min, 30 mg/kg): 20%; Protected (%) (CF-1 strain mice; 30 min, 30 mg/kg): 40%; Ataxic (%) (CF-1 strain mice; 60 min, 10 mg/kg): 0%; Protected (%) (CF-1 strain mice; 60 min, 10 mg/kg): 0%; Ataxic (%) (CF-1 strain mice; 60 min, 30 mg/kg): 20%; Protected (%) (CF-1 strain mice; 60 min, 30 mg/kg): 40%; duration of action in maximal electroshock time course compared with PNQX (CF-1 strain mice): extended duration of action
380 nM | 1210 nM | 6 nM | Cc1c([N+](=O)[O-])cc2[nH]c(=O)c(=O)[nH]c2c1CN(C)C(=O)c1ccco1 [Compound 12, Furan-2-carboxylic acid methyl-(6-methyl-7-nitro-2,3-dioxo-1,2,3,4-tetrahydro-quinoxalin-5-ylmethyl)-amide] | Ataxic (%) (CF-1 strain mice; 3 min, 30 mg/kg): 40%; Protected (%) (CF-1 strain mice; 3 min, 30 mg/kg): 40%; Ataxic (%) (CF-1 strain mice; 15 min, 10 mg/kg): 0%; Protected (%) (CF-1 strain mice; 15 min, 10 mg/kg): 40%; Ataxic (%) (CF-1 strain mice; 15 min, 30 mg/kg): 60%; Protected (%) (CF-1 strain mice; 15 min, 30 mg/kg): 80%; Protected (%) (CF-1 strain mice; 30 min, 10 mg/kg): 40%; Ataxic (%) (CF-1 strain mice; 30 min, 30 mg/kg): 20%; Protected (%) (CF-1 strain mice; 30 min, 30 mg/kg): 40%; Ataxic (%) (CF-1 strain mice; 60 min, 30 mg/kg): 20%; Protected (%) (CF-1 strain mice; 60 min, 30 mg/kg): 40%; duration of action in maximal electroshock time course compared with PNQX (CF-1 strain mice): extended duration of action
620 nM | 5980 nM | 40 nM | Cc1c([N+](=O)[O-])cc2[nH]c(=O)c(=O)[nH]c2c1CN(C)C(=O)c1cc2ccccc2s1 [Compound 13, Benzo[b]thiophene-2-carboxylic acid methyl-(6-methyl-7-nitro-2,3-dioxo-1,2,3,4-tetrahydro-quinoxalin-5-ylmethyl)-amide] | –
520 nM | 850 nM | 5 nM | COc1ccc(C(=O)N(C)Cc2c(C)c([N+](=O)[O-])cc3[nH]c(=O)c(=O)[nH]c23)cc1 [Compound 14, 4-Methoxy-N-methyl-N-(6-methyl-7-nitro-2,3-dioxo-1,2,3,4-tetrahydro-quinoxalin-5-ylmethyl)-benzamide] | –
210 nM | 290 nM | 100 nM | CCOC(=O)N(C)Cc1c(C)c([N+](=O)[O-])cc2[nH]c(=O)c(=O)[nH]c12 [Compound 15, Methyl-(6-methyl-7-nitro-2,3-dioxo-1,2,3,4-tetrahydro-quinoxalin-5-ylmethyl)-carbamic acid ethyl ester] | Ataxic (%) (CF-1 strain mice; 10 min, 3 mg/kg): 0%; Protected (%) (CF-1 strain mice; 10 min, 3 mg/kg): 0%; Ataxic (%) (CF-1 strain mice; 10 min, 10 mg/kg): 0%; Protected (%) (CF-1 strain mice; 10 min, 10 mg/kg): 40%; Ataxic (%) (CF-1 strain mice; 30 min, 3 mg/kg): 0%; Protected (%) (CF-1 strain mice; 30 min, 3 mg/kg): 0%; Ataxic (%) (CF-1 strain mice; 30 min, 10 mg/kg): 0%; Protected (%) (CF-1 strain mice; 30 min, 10 mg/kg): 60%
